Test results reported in US12600709B2, “Nonpeptide somatostatin type 5 receptor agonists and uses thereof” (Crinetics Pharmaceuticals, Inc., priority 2019, dated 2026).
Read-outs that look alike come from different tables or passages of the source.

Assays:
[1] = molecular target: T1, human somatostatin receptor subtype 5 (Homo sapiens, UniProt P35346); assay: cAMP assay for SST5R (inhibition of cAMP in CHO-K1 cells); assay type: cell-based; details: for EC50: inhibition of cAMP via human SST5 receptor, read-out: SST5 potency
T1 construct: expressed in transfected cells
In short: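 CHO-K1 cells stably expressing human SSTR5 were treated 20 min at 37 °C with compounds plus 1.6 μM NKH477 in HBSS, 0.5 mM HEPES pH 7.4, 0.1% BSA, 0.2 mM IBMX. Lysate cAMP measured by HTRF against a standard curve; EC50 from cAMP-versus-concentration plots.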

[2] = molecular target: T2, human somatostatin receptor subtype 2 (Homo sapiens, UniProt P30874); assay: cAMP assay for SST2R (inhibition of cAMP in CHO-K1 cells); assay type: cell-based; details: Table B; inhibition of cAMP via human SST2 receptor; read-out: SST2 potency
T2 construct: expressed in transfected cells
In short: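 Agonism read as decrease in NKH477 (1.6 μM)-stimulated cAMP: compounds applied 20 min, 37° C, with 0.2 mM IBMX, to CHO-K1 stably expressing human SSTR2. cAMP quantified in lysates by time-resolved fluorescence (HTRF kit, 1-24 h RT), standard-curve regression, then EC50.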

[3] = Table B, class symbols, SST5 receptor over SST2 receptor
[4] = Table B, numeric values for comparison compounds

T1 sequence (P35346 whole entry): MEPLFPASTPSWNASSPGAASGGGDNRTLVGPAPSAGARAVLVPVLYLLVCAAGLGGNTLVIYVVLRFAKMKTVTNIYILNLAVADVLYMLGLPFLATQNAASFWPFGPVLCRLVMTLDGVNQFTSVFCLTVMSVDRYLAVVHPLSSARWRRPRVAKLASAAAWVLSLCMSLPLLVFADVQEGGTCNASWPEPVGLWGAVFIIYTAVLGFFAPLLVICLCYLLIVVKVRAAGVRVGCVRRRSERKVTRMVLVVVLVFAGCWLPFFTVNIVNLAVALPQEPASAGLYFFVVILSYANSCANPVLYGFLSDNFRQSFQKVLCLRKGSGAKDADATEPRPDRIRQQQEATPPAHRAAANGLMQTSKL
T2 sequence (P30874 whole entry): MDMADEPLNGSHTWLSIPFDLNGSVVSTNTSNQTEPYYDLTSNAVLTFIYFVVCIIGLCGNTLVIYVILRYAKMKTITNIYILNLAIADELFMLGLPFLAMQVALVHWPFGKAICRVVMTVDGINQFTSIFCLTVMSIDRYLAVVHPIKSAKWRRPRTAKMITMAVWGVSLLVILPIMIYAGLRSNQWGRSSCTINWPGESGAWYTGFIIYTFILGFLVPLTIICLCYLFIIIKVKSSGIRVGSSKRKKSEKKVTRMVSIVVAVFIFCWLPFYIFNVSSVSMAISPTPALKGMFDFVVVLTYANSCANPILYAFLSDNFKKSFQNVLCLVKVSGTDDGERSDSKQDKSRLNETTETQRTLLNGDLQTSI

| EC50 ([1]; Table A) [nM] | Fold selectivity for SST5 vs SST2 [1, 3] | EC50 ([1]; Table B) [nM] | EC50 [2] [nM] | Fold selectivity for SST5 vs SST2 [1, 4] | SMILES |
| --- | --- | --- | --- | --- | --- |
| < 10 | ++ (++=100 to 499) | < 10 | 100 to 1000 | – | Cc1cccc2[nH]c(-c3cncc(C(=O)N4CC[C@H]5CCCC54)c3N3CC[C@](C)(N)C3)nc12 (stereo partly drawn) [2-37, (3S)-1-{3-[(3aR)-octahydrocyclopenta[b]pyrrole-1-carbonyl]-5-(4-methyl-1H-1,3-benzodiazol-2-yl)pyridin-4-yl}-3-methylpyrrolidin-3-amine] |
| < 10 | + (+=10 to 99) | < 10 | 100 to 1000 | – | Cc1cccc2[nH]c(-c3cncc(C(=O)NC4CCCCC4)c3N3CC[C@](C)(N)C3)nc12 [2-38, 4-[(3S)-3-amino-3-methylpyrrolidin-1-yl]-N-cyclohexyl-5-(4-methyl-1H-1,3-benzodiazol-2-yl)pyridine-3-carboxamide] |
| < 10 | + (+=10 to 99) | < 10 | 100 to 1000 | – | Cc1cccc2[nH]c(-c3cncc(C(=O)N4CCC[C@H]4C(F)(F)F)c3N3CC[C@](C)(N)C3)nc12 [2-41, (3S)-3-methyl-1-[3-(4-methyl-1H-1,3-benzodiazol-2-yl)-5-[(2S)-2-(trifluoromethyl)pyrrolidine-1-carbonyl]pyridin-4-yl]pyrrolidin-3-amine] |
| < 10 | ++ (++=100 to 499) | < 10 | 100 to 1000 | – | Cc1cccc2[nH]c(-c3cncc(C(=O)N4CCC(C5CC5)C4)c3N3CC[C@](C)(N)C3)nc12 (stereo partly drawn) [2-42, (3S)-1-[3-(3-cyclopropylpyrrolidine-1-carbonyl)-5-(4-methyl-1H-1,3-benzodiazol-2-yl)pyridin-4-yl]-3-methylpyrrolidin-3-amine] |
| < 10 | + (+=10 to 99) | < 10 | 10 to 100 | – | Cc1cccc2[nH]c(-c3cncc(C(=O)N4CCCC4C4CC4)c3N3CC[C@](C)(N)C3)nc12 (stereo partly drawn) [2-43, (3S)-1-[3-(2-cyclopropylpyrrolidine-1-carbonyl)-5-(4-methyl-1H-1,3-benzodiazol-2-yl)pyridin-4-yl]-3-methylpyrrolidin-3-amine] |
| < 10 | ++ (++=100 to 499) | < 10 | 100 to 1000 | – | C[C@]1(N)CCN(c2c(C(=O)N3C4CC5CC(C4)CC3C5)cncc2-c2nc3cccc(Cl)c3[nH]2)C1 [2-45, (3S)-1-(3-{2-azatricyclo[3.3.1.1^3,7]decane-2-carbonyl}-5-(7-chloro-1H-1,3-benzodiazol-2-yl)pyridin-4-yl)-3-methylpyrrolidin-3-amine] |
| < 10 | +++ (+++=>500) | < 10 | > 1000 | – | C[C@]1(N)CCN(c2c(C(=O)NC3CCCCC3)ccnc2-c2cc(F)cc(F)c2)C1 [3-2, 3-[(3S)-3-amino-3-methylpyrrolidin-1-yl]-N-cyclohexyl-2-(3,5-difluorophenyl)pyridine-4-carboxamide] |
| < 10 | +++ (+++=>500) | < 10 | > 1000 | – | C[C@]1(N)CCN(c2c(C(=O)NC3CCCCCC3)ccnc2-c2cc(F)cc(F)c2)C1 [3-6, 3-[(3S)-3-amino-3-methylpyrrolidin-1-yl]-N-cycloheptyl-2-(3,5-difluorophenyl)pyridine-4-carboxamide] |
| < 10 | +++ (+++=>500) | < 10 | > 1000 | – | C[C@H](NC(=O)c1ncc(Cl)c(-c2cc(F)cc(F)c2)c1N1CC[C@](C)(N)C1)C1CC1 [4-1, 3-[(3S)-3-amino-3-methylpyrrolidin-1-yl]-5-chloro-N-[(1S)-1-cyclopropylethyl]-4-(3,5-difluorophenyl)pyridine-2-carboxamide] |
| – | – | < 10 | < 10 | 0.084 | Cc1cc(C)cc(NC(=O)c2cncc(-c3cc(C)cc(C)c3)c2N2CCC(CN)C2)c1 (stereo not drawn) [4-(3-(aminomethyl)pyrrolidin-1-yl)-N,5-bis(3,5-dimethylphenyl)nicotinamide, reference compound] |
| – | – | > 1000 | < 10 | 0.0055 | Cc1cc(C)cc(-c2cncc(NC(=O)c3ccc(F)c(Cl)c3)c2N2CCC(CN)C2)c1 (stereo not drawn) [N-(4-(3-(aminomethyl)pyrrolidin-1-yl)-5-(3,5-dimethylphenyl)pyridin-3-yl)-3-chloro-4-fluorobenzamide, reference compound] |
